Experiments:
[1] = patients, by body surface area; cited from earlier work
[2] = test system: microvascular endothelium (skin, right anterior thigh) of a peripheral artery disease patient; assay: Skin colorimetry (a, b, L) before and after application of “μ” in a peripheral artery disease patient on cilostazol; assay type: in vivo, human; details: 50 mg twice a day; for a dry: baseline (dry)
Description: As stated above, one available quantitative color system is the L*a*b* color space or Hunter L/a/b color space, which can be visualized as a rectangular 3D coordinate system. L indicates lightness, a is the red/green coordinate, and b is the yellow/blue coordinate. L can have a value from 0 (black) to 100 (perfect reflection). The a and b axes have no numerical limits. Coordinate a is positive when red, and negative when green. Positive b is yellow, and negative b is blue. Colors can be described numerically using numerical values for L, a, and b. Differences between two colors can be quantified for each of the individual L/a/b values (ΔL, Δa, Δb). Overall differences between two colors can be derived numerically based on the three Δ values.
μ=drug applied before colorimeter and/or spectrophotometer measurements.
L1, a1, b1=Initial measurement.
L2, a2, b2=Measurement with μ applied. L2−L1=ΔLμ(L2 minus L1)=change in lightness and darkness(+=lighter,−=darker) a2−a1=Δaμ(a2 minus a1)=change in red and green(+=redder,−=greener) b2−b1=Δbμ(b2 minus b1)=change in yellow and blue(+=yellower,−=bluer)
When the arteries in the lower extremities become blocked and stenosed with various disease manifestations such as diabetes, hypercholesterolemia there is an increased amount of claudication that occurs with the lower extremities with minimal exertion. Using the current methodology described herein the patient can ascertain if the effects of the various antiplatelet and statin medication's i.e. Lipitor, Crestor are affective in improving the blood flow to the lower extremities. By taking baseline measurements in the lower extremities in particular locations in the legs such as the anterior tibial surface of a right or left leg, medication can be then administered to the patient. After the corresponding 5 half-lives or more have past of drug “δ” the procedure above can be implemented and test run to determine the a, b, L after drug “μ” has been applied. This information can then be used by calculating the measurements with the equation as described above the change in the colorimetric and spectrophotometric variables that can be derived. This will then allow for the ability of the patient in the healthcare provider to know which drug provides the maximum increase in cardio vascular flow to the area based on the information of the homeostasis of the microvascular endothelial system. The more a percentage change of equal to or greater than 10%, the better the flow that would be understood to be an improvement of the peripheral circulation of that area. It will also allow for the proper titration of medication of that particular area. If it seems to improve the flow then, the patient and the healthcare provider may decide to increase the dosage of the medication to have a better benefit. This will allow for an objective determination of how well the patient is responding to the medication while minimizing the side effects of the drugs.
With reference to the table below and to FIG. 19, the table and the graph show a patient with known peripheral artery disease diagnosed by angiogram in the right distal common femoral artery who is having their right anterior thigh continuously evaluated at the same location for the a, b, L calculations after they were initially started on 50 mg of cilostazol twice a day from December 2016 until August 2017. The values of the of a, b, L, are calculated after “μ” was applied which is shown in color red.

[3] = test system: coronary arteries; details: cited from earlier work
[4] = test system: skin capillaries; assay: Topical wet run solution on skin: capillary dilation / red shift; assay type: in vivo, human; details: applied to skin surface
Description: The inventor's work has identified previously unknown differences in the reactions of healthy and unhealthy individuals to acetylcholine and other vasodilative substances when applied to the skin. […] Additional efficacious wet run solutions include bradykinin, adenosine, vasopressin, nitroglycerin, sildenafil, serotonin, and thrombin.
“Wet runs” can be performed according to the same general protocol described above for dry runs, which are incorporated herein but will not be fully repeated for brevity. The difference is that for wet runs the skin area being measured with the color detector is wetted with a chemical solution (a.k.a. “Wet run solution”). For example, a solution of one or more chemicals (e.g. acetylcholine and/or thrombin) in water, alcohol, petroleum jelly, or saline. The solution can be applied by wiping or covering the area with a wet gauze pad. The solution may be applied once at the beginning of the procedure before the color detector is positioned on the skin, or applied more than once throughout the procedure. Suspensions of effective chemicals (as opposed to solutions), viscous spreadable chemical applications, lipid-carrier compounds, and potentially non-wet applications of effective chemicals are also contemplated.
Wet runs can also be used as a partial substitute for exercise in a clinical setting, such as for patients who are not physically able to perform stress test exercises. The chemical alone provokes the same general types of differential responses as stress test exercise. For example, in a healthy at-rest individual, acetylcholine alone causes skin capillary dilation, which increases blood perfusion and (because blood is red) causes the skin to become more red. In an unhealthy individual, the acetylcholine alone will cause only low, negligible, or even negative red shift. Thus, the differential reactions to application of acetylcholine (for example) can be used to assess vascular health or the effectiveness of medication even without a stress test.

For COc1cccc2c1C(=O)c1c(O)c3c(c(O)c1C2=O)C[C@@](O)(C(=O)CO)C[C@@H]3O[C@H]1C[C@H](N)[C@H](O)[C@H](C)O1 [Adriamycin], the “cumulative dose associated with an increased risk of cardiomyopathy” value [1] is given as “above 550 mg/m2”.
For O=C1CCc2cc(OCCCCc3nnnn3C3CCCCC3)ccc2N1 [Cilostazol, cilostazol], the “effect on blood flow to the microvascular endothelium (a shift after μ)” value ([2]; 9 months monitoring) was “improved blood flow”, the L ([2]; April 2017) was 70.42 and the b ([2]; April 2017) was 16.14. For the same compound, the L ([2]; August 2017) was 65.59, the b ([2]; August 2017) was 16.8 and the L ([2]; December 2016) was 65.09. For the same compound, the b ([2]; December 2016) was 15.65, the L ([2]; February 2017) was 71.68 and the b ([2]; February 2017) was 14.67. For the same compound, the L ([2]; January 2017) was 58.14, the b ([2]; January 2017) was 10.51 and the L ([2]; July 2017) was 71.63. It also gave a b ([2]; July 2017) of 14.62, an L ([2]; June 2017) of 66.06 and a b ([2]; June 2017) of 17.75. For the same compound, the L ([2]; March 2017) was 70.24, the b ([2]; March 2017) was 15.42 and the L ([2]; May 2017) was 69.91. For the same compound, the b ([2]; May 2017) was 15.64, the a dry ([2]; April 2017) was 5.14 and the a dry ([2]; August 2017) was 5.31. It also gave an a dry ([2]; December 2016) of 4.58, an a dry ([2]; February 2017) of 4.70 and an a dry ([2]; January 2017) of 4.62. For the same compound, the a dry ([2]; July 2017) was 5.15, the a dry ([2]; June 2017) was 5.35 and the a dry ([2]; March 2017) was 5.12. For the same compound, the a dry ([2]; May 2017) was 5.02, the “a wet after “μ”” value ([2]; April 2017) was 7.33 and the “a wet after “μ”” value ([2]; August 2017) was 10.32. For the same compound, the “a wet after “μ”” value ([2]; December 2016) was 5.35, the “a wet after “μ”” value ([2]; February 2017) was 7.33 and the “a wet after “μ”” value ([2]; January 2017) was 6.33. For the same compound, the “a wet after “μ”” value ([2]; July 2017) was 8.95, the “a wet after “μ”” value ([2]; June 2017) was 9.40 and the “a wet after “μ”” value ([2]; March 2017) was 7.62. The “a wet after “μ”” value ([2]; May 2017) was 8.06.
In the case of CC(=O)OCC[N+](C)(C)C [acetylcholine], the temporary occlusion ([3]; eight arteries with advanced stenosis) is given as “temporary occlusion in five”.
For Nc1ncnc2c1ncn2[C@@H]1O[C@H](CO)[C@@H](O)[C@H]1O [adenosine], the “efficacy as wet run solution” value [4] was “efficacious”.
In the case of O=[N+]([O-])OCC(CO[N+](=O)[O-])O[N+](=O)[O-] [nitroglycerin], the “efficacy as wet run solution” value [4] is given as “efficacious” and the vessel response ([3]; all vessels (normal and diseased)) is given as “All vessels dilated”.
With NCCc1c[nH]c2ccc(O)cc12 [serotonin] the “efficacy as wet run solution” value [4] was “efficacious”.
With CCCc1nn(C)c2c(=O)[nH]c(-c3cc(S(=O)(=O)N4CCN(C)CC4)ccc3OCC)nc12 [sildenafil] the “efficacy as wet run solution” value [4] was “efficacious”.
In the case of NC(=O)CC[C@@H]1NC(=O)[C@H](Cc2ccccc2)NC(=O)[C@H](Cc2ccc(O)cc2)NC(=O)[C@@H](N)CSSC[C@@H](C(=O)N2CCC[C@H]2C(=O)N[C@@H](CCCN=C(N)N)C(=O)NCC(N)=O)NC(=O)[C@H](CC(N)=O)NC1=O [vasopressin], the “efficacy as wet run solution” value [4] is reported as “efficacious”.
In the case of thrombin, the “efficacy as wet run solution” value [4] is reported as “efficacious”.

— patent US10154813B1, “Method and apparatus for patient skin color monitoring and drug efficacy measurement” (priority 2017, dated 2018)
